Experimental data as given in PubChem BioAssay (NCI).
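All cell lines were grown in 96-well plates and treated with compound for 48 hours. At the GI50, growth is halved. TGI marks complete inhibition of growth.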

Legend:
Assay in all cases: NCI-60 cell line screen, 48 h
SK-MEL-5 melanoma = system: SK-MEL-5 melanoma
OVCAR-5 ovarian = system: OVCAR-5 ovarian
IGROV1 ovarian = system: IGROV1 ovarian
HL-60(TB) leukemia = system: HL-60(TB) leukemia
SNB-19 CNS = system: SNB-19 CNS
MALME-3M melanoma = system: MALME-3M melanoma
KM12 colon = system: KM12 colon
OVCAR-3 ovarian = system: OVCAR-3 ovarian
UO-31 renal = system: UO-31 renal
SK-OV-3 ovarian = system: SK-OV-3 ovarian

Compound	GI50 (SK-MEL-5 melanoma) [µM]	TGI (SK-MEL-5 melanoma) [µM]	GI50 (OVCAR-5 ovarian) [µM]	TGI (OVCAR-5 ovarian) [µM]	GI50 (IGROV1 ovarian) [µM]	TGI (IGROV1 ovarian) [µM]	GI50 (HL-60(TB) leukemia) [µM]	TGI (HL-60(TB) leukemia) [µM]	GI50 (SNB-19 CNS) [µM]	TGI (SNB-19 CNS) [µM]	GI50 (MALME-3M melanoma) [µM]	TGI (MALME-3M melanoma) [µM]	GI50 (KM12 colon) [µM]	TGI (KM12 colon) [µM]	GI50 (OVCAR-3 ovarian) [µM]	TGI (OVCAR-3 ovarian) [µM]	GI50 (UO-31 renal) [µM]	TGI (UO-31 renal) [µM]	GI50 (SK-OV-3 ovarian) [µM]	TGI (SK-OV-3 ovarian) [µM]
CC(=O)Oc1ccc(C23c4ccccc4C2(OC(C)=O)c2cc(OC(C)=O)ccc23)cc1 (stereo not given)	6.19	20.3	5.54	18	5.86	27.2	2.41	6.72	4.64	15.5	9.61	27.3	3.34	11.2	8.32	52.9	1.85	5.02	20.5	47.6
CC1=C(C(=O)CC(=O)C(=O)Nc2cc(C)ccc2C)Sc2ccccc2N1		> 100		> 100		> 100		> 100		> 100		> 100		> 100		> 100		> 100		> 100
O=c1/c(=C/c2ccccc2[N+](=O)[O-])sc2nc3ccccc3n12		> 46.4		> 46.4		> 46.4		> 46.4		> 77.9		> 46.4		> 46.4		> 31.6		> 46.4		> 31.6
CN(CCCCCl)P(=O)(OCCS(=O)(=O)CC(NC(=O)CCC(N)C(=O)O)C(=O)NC(C(=O)O)c1ccccc1)OCC1OC(n2ccc(N)nc2=O)C(F)(F)C1O (stereo not given)	0.484	> 100	0.872	> 100	0.0581	25.9	0.0339	5.23	0.143	> 100	3.06	> 100	14.6	> 100	14.7	> 100	< 0.0213	2.7	0.784	> 100
CC(=O)c1ccc2c(c1)C1C=CCC1[C@H](c1cc3c(cc1Br)OCO3)N2 (stereo not given in full)	1.13	5.81	3.01	> 38.8	1.63	> 64.9	1.3	5.07	1.87	33.2	0.86	45.8	0.581	11.3	0.48	1.08	1.89	34.9	1.47	17.8
COc1ccc(-c2ccncc2)cc1C(N)=O	> 25	> 25	> 25	> 25	> 25	> 25	> 25	> 25	> 25	> 25	> 25	> 25	> 25	> 25	> 25	> 25	> 25	> 25	> 25	> 25
CCC(O)c1ccc(Br)cc1NC(=O)c1cccc(Cl)c1 (stereo not given)	14.5	28.2	32.3	> 100	17.2	92.6	22.3	60.1	37.4	> 100	36.6	> 100	13	29.6	20.3	71.1	10.8	> 100	23.7	64.3
CCC[CH2][Sn]([Cl])([Cl])[CH2]CCC	0.509	1.55	1.51	2.89	1.04	1.62	0.275	1.02	0.948	2.17	0.371	1.44	1.35	2.81	1.03	2.32	1.39	2.69	1.67	3.08
C[C@@H]1C[C@H](C)CN(S(=O)(=O)c2ccc3c(NO)c4ccc(S(=O)(=O)N5C[C@H](C)C[C@H](C)C5)cc4c(N=O)c3c2)C1	0.25	0.687	0.173	0.4	0.21	0.461	0.185	0.448	0.164	0.353	0.14	0.293	0.0833	0.257	0.182	0.328	0.167	0.338	0.122	0.248
O=S(=O)(NC1=NCCN1C(=S)SN1CCn2c1nsc2=S)c1cccc2ccccc12	19.1	54.4	61	> 100	10	32.6	30.9	99.3	62.3	> 100	12.3	57.4	17.3	41.4	16.5	40.3	26.6	> 100	31.1	91.5
